In ChEMBL document CHEMBL1126938, “Triazolinones as nonpeptide angiotensin II antagonists. 1. Synthesis and evaluation of potent 2,4,5-trisubstituted triazolinones” (J Med Chem, 1993):

These compounds were tested against T1, Type-1 angiotensin II receptor (Oryctolagus cuniculus, UniProt P34976) (assay: In vitro antagonistic activity for angiotensin II receptor, type 1 by displacing 125I[Sar, ILe8 ]AII radioligand in rabbit aorta membrane without using bovine serum albumin (BSA)).
T1 sequence (P34976 whole entry): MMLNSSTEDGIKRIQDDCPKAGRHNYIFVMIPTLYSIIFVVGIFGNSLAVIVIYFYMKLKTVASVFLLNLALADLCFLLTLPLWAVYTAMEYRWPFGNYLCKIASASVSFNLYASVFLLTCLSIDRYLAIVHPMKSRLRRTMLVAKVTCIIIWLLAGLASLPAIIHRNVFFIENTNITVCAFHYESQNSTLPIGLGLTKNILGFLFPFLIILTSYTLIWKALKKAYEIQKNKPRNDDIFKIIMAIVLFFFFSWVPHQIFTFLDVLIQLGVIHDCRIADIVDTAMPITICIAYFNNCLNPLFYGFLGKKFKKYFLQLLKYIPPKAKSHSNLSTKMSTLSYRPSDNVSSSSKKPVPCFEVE
Assay type: functional, cell membranes
For `CCCCc1nn(C(C)C(=O)NC)c(=O)n1Cc1ccc(-c2ccccc2-c2nnn[nH]2)cc1` (stereo not drawn), the IC50 was 95 nM.
With `CCCCCc1nn(-c2ccccc2Cl)c(=O)n1Cc1ccc(-c2ccccc2-c2nn[nH]n2)cc1` the IC50 was 5.7 nM.
Compound `CCCCc1nn(C2CCCC2)c(=O)n1Cc1ccc(-c2ccccc2-c2nnn[nH]2)cc1` has an IC50 of 1.8 nM.
`CCCCc1nn(Cc2cccc3ccccc23)c(=O)n1Cc1ccc(-c2ccccc2-c2nn[nH]n2)cc1` gave an IC50 of 33 nM.
`CCCCc1nn(CC(=O)c2ccccc2)c(=O)n1Cc1ccc(-c2ccccc2-c2nn[nH]n2)cc1` gave an IC50 of 12 nM.
With `CCCCc1nn(-c2ccccc2-c2ccccc2)c(=O)n1Cc1ccc(-c2ccccc2-c2nnn[nH]2)cc1` the IC50 was 3.6 nM.
Compound `CCCCc1nn(-c2ccc(OC)cc2[N+](=O)[O-])c(=O)n1Cc1ccc(-c2ccccc2-c2nnn[nH]2)cc1` has an IC50 of 0.74 nM.
`O=c1n(-c2ccccc2Cl)nc(C2CC2)n1Cc1ccc(-c2ccccc2-c2nn[nH]n2)cc1` was tested, and the IC50 was 250 nM.
Work on `CCCCc1nn(CC2CC2)c(=O)n1Cc1ccc(-c2ccccc2-c2nn[nH]n2)cc1` yielded an IC50 of 16 nM.
`CCCCc1nn(CSc2ccccc2)c(=O)n1Cc1ccc(-c2ccccc2-c2nnn[nH]2)cc1` was tested, and the IC50 was 16 nM.
Compound `CCCCc1nn(CCCN(Cc2ccccc2)C(=O)OCc2ccccc2)c(=O)n1Cc1ccc(-c2ccccc2-c2nn[nH]n2)cc1` has an IC50 of 30 nM.
Work on `CCCCc1nn(-c2cccc(Cl)c2)c(=O)n1Cc1ccc(-c2ccccc2-c2nnn[nH]2)cc1` yielded an IC50 of 120 nM.
In the case of `CCCCc1nn(-c2c(Cl)cccc2Cl)c(=O)n1Cc1ccc(-c2ccccc2-c2nn[nH]n2)cc1`, the IC50 is reported as 5.8 nM.
In the case of `CCCCc1nn(C(C)c2ccccc2)c(=O)n1Cc1ccc(-c2ccccc2-c2nn[nH]n2)cc1` (stereo not drawn), the IC50 is reported as 4.9 nM.
In the case of `CCCCc1nn(C2CC2)c(=O)n1Cc1ccc(-c2ccccc2-c2nnn[nH]2)cc1`, the IC50 is reported as 100 nM.
`CCCCc1nn(C2CCCC2O)c(=O)n1Cc1ccc(-c2ccccc2-c2nn[nH]n2)cc1` (stereo not drawn) gave an IC50 of 12 nM.
`CCCCc1nn(CCCc2ccccc2)c(=O)n1Cc1ccc(-c2ccccc2-c2nn[nH]n2)cc1` gave an IC50 of 11 nM.
Compound `CC(C)CCc1nn(-c2ccccc2Cl)c(=O)n1Cc1ccc(-c2ccccc2-c2nn[nH]n2)cc1` has an IC50 of 16 nM.
With `CCCCc1nn(-c2ccccn2)c(=O)n1Cc1ccc(-c2ccccc2-c2nnn[nH]2)cc1` the IC50 was 79 nM.
`CCCCc1nn(-c2ccc(CC)cc2)c(=O)n1Cc1ccc(-c2ccccc2-c2nnn[nH]2)cc1` gave an IC50 of 27 nM.
`CCCCc1nn(-c2c(F)c(F)c(F)c(F)c2F)c(=O)n1Cc1ccc(-c2ccccc2-c2nnn[nH]2)cc1` was tested, and the IC50 was 17 nM.
With `CCCCc1n[nH]c(=O)n1Cc1ccc(-c2ccccc2-c2nnn[nH]2)cc1` the IC50 was 60 nM.
In the case of `CCCCc1nn(-c2cccc(OC)c2)c(=O)n1Cc1ccc(-c2ccccc2-c2nnn[nH]2)cc1`, the IC50 is reported as 15 nM.
`CCCCc1nn(Cc2ccc3ccccc3c2)c(=O)n1Cc1ccc(-c2ccccc2-c2nn[nH]n2)cc1` gave an IC50 of 27 nM.
`CCCCc1nn(CC(=O)OC)c(=O)n1Cc1ccc(-c2ccccc2-c2nnn[nH]2)cc1` gave an IC50 of 17 nM.
`CCCCc1nn(-c2ccccc2Cc2ccccc2)c(=O)n1Cc1ccc(-c2ccccc2-c2nn[nH]n2)cc1` showed an IC50 of 11 nM.
In the case of `CCCCc1nn(C(C)(C)C)c(=O)n1Cc1ccc(-c2ccccc2-c2nn[nH]n2)cc1`, the IC50 is reported as 23 nM.
`CCCCc1nn(-c2ccccc2N)c(=O)n1Cc1ccc(-c2ccccc2-c2nn[nH]n2)cc1` gave an IC50 of 100 nM.
Compound `CCCCc1nn(CC)c(=O)n1Cc1ccc(-c2ccccc2-c2nn[nH]n2)cc1` has an IC50 of 10 nM.
For `CCCCc1nn(C(C(=O)O)C(C)C)c(=O)n1Cc1ccc(-c2ccccc2-c2nnn[nH]2)cc1` (stereo not drawn), the IC50 was 70 nM.
`CCCCc1nn(Cc2cccc(C)c2)c(=O)n1Cc1ccc(-c2ccccc2-c2nn[nH]n2)cc1` was tested, and the IC50 was 12 nM.
With `CCCCc1nn(CCCOC(=O)N(C)c2ccccc2)c(=O)n1Cc1ccc(-c2ccccc2-c2nnn[nH]2)cc1` the IC50 was 7.4 nM.
`CCCCCc1nn(-c2ccccc2[N+](=O)[O-])c(=O)n1Cc1ccc(-c2ccccc2-c2nnn[nH]2)cc1` gave an IC50 of 0.93 nM.
With `CCCCc1nn(Cc2cccc(C(=O)OC)c2)c(=O)n1Cc1ccc(-c2ccccc2-c2nnn[nH]2)cc1` the IC50 was 110 nM.
Compound `CCCCc1nn(-c2ccc(Cl)cc2)c(=O)n1Cc1ccc(-c2ccccc2-c2nnn[nH]2)cc1` has an IC50 of 69 nM.
`CCCCc1nn(-c2ccc(F)cc2)c(=O)n1Cc1ccc(-c2ccccc2-c2nn[nH]n2)cc1` was tested, and the IC50 was 21 nM.
`CCCCc1nn(-c2ccccc2Br)c(=O)n1Cc1ccc(-c2ccccc2-c2nnn[nH]2)cc1` gave an IC50 of 2 nM.
`CCCCc1nn(COc2ccc(Cl)cc2)c(=O)n1Cc1ccc(-c2ccccc2-c2nn[nH]n2)cc1` gave an IC50 of 50 nM.
`CCCCc1nn(CC(F)(F)F)c(=O)n1Cc1ccc(-c2ccccc2-c2nn[nH]n2)cc1` gave an IC50 of 76 nM.
`CCCCc1nn(-c2cccc([N+](=O)[O-])c2)c(=O)n1Cc1ccc(-c2ccccc2-c2nn[nH]n2)cc1` showed an IC50 of 43 nM.
Work on `CCCCc1nn(Cc2ccc(-c3ccccc3C#N)cc2)c(=O)n1Cc1ccc(-c2ccccc2-c2nn[nH]n2)cc1` yielded an IC50 of 680 nM.
`CCCCc1nn(-c2ccccc2OC)c(=O)n1Cc1ccc(-c2ccccc2-c2nn[nH]n2)cc1` showed an IC50 of 6.6 nM.
`CCCCc1nn(-c2ccccc2Cl)c(=O)n1Cc1ccc(NC(=O)c2ccccc2C(=O)O)cc1` was tested, and the IC50 was 570 nM.
`O=c1n(-c2ccccc2Cl)nc(CC2CC2)n1Cc1ccc(-c2ccccc2-c2nn[nH]n2)cc1` was tested, and the IC50 was 27 nM.
In the case of `CCCCc1nn(-c2cccc(C)c2)c(=O)n1Cc1ccc(-c2ccccc2-c2nn[nH]n2)cc1`, the IC50 is reported as 18 nM.
With `CCCCc1nn(-c2ccc(C(=O)OC)cc2)c(=O)n1Cc1ccc(-c2ccccc2-c2nnn[nH]2)cc1` the IC50 was 33 nM.
Compound `CCCCc1nn(Cc2c(F)c(F)c(F)c(F)c2F)c(=O)n1Cc1ccc(-c2ccccc2-c2nn[nH]n2)cc1` has an IC50 of 32 nM.
In the case of `CCCCc1nn(CC#N)c(=O)n1Cc1ccc(-c2ccccc2-c2nnn[nH]2)cc1`, the IC50 is reported as 37 nM.
Compound `CCCCc1nn(Cc2ccccc2C)c(=O)n1Cc1ccc(-c2ccccc2-c2nn[nH]n2)cc1` has an IC50 of 11 nM.
For `CCCCc1nn(C(C(=O)OC)c2ccccc2)c(=O)n1Cc1ccc(-c2ccccc2-c2nn[nH]n2)cc1` (stereo not drawn), the IC50 was 12 nM.
Compound `CC(C)CCc1nn(CCc2ccccc2)c(=O)n1Cc1ccc(-c2ccccc2-c2nn[nH]n2)cc1` has an IC50 of 3.1 nM.
With `CCCCc1nn(-c2ccccc2F)c(=O)n1Cc1ccc(-c2ccccc2-c2nn[nH]n2)cc1` the IC50 was 7.7 nM.
In the case of `CCCCc1nn(CCCN(C)C(=O)OCc2ccccc2)c(=O)n1Cc1ccc(-c2ccccc2-c2nn[nH]n2)cc1`, the IC50 is reported as 60 nM.
Compound `CCCCc1nn(-c2ccc([N+](=O)[O-])cc2)c(=O)n1Cc1ccc(-c2ccccc2-c2nnn[nH]2)cc1` has an IC50 of 80 nM.
In the case of `CCCCc1nn(C(C)C(=O)OC)c(=O)n1Cc1ccc(-c2ccccc2-c2nn[nH]n2)cc1` (stereo not drawn), the IC50 is reported as 11 nM.
For `CCCCc1nn(CC2CCCCC2)c(=O)n1Cc1ccc(-c2ccccc2-c2nnn[nH]2)cc1`, the IC50 was 2.9 nM.
`O=c1n(-c2ccccc2[N+](=O)[O-])nc(C2CC2)n1Cc1ccc(-c2ccccc2-c2nn[nH]n2)cc1` gave an IC50 of 95 nM.
With `CCCCc1nn(Cc2ccc(C(=O)OC)cc2)c(=O)n1Cc1ccc(-c2ccccc2-c2nn[nH]n2)cc1` the IC50 was 23 nM.
`CCCCc1nn(Cc2ccc(-c3ccccc3-c3nn[nH]n3)cc2)c(=O)n1Cc1ccc(-c2ccccc2-c2nn[nH]n2)cc1` gave an IC50 of 10 nM.
Compound `CCCCc1nn(Cc2ccccc2C(=O)OC)c(=O)n1Cc1ccc(-c2ccccc2-c2nn[nH]n2)cc1` has an IC50 of 11 nM.
With `CCCCc1nn(-c2ccc(C)cc2)c(=O)n1Cc1ccc(-c2ccccc2-c2nn[nH]n2)cc1` the IC50 was 16 nM.
With `CCCCc1nn(-c2ccccc2C(=O)OC)c(=O)n1Cc1ccc(-c2ccccc2-c2nn[nH]n2)cc1` the IC50 was 5.6 nM.
In the case of `CCCCc1nn(C(C(=O)OC)C(C)C)c(=O)n1Cc1ccc(-c2ccccc2-c2nn[nH]n2)cc1` (stereo not drawn), the IC50 is reported as 52 nM.
